{"source": "patent US10526330B2", "about": "“JAK kinase inhibitor compounds for treatment of respiratory disease” (THERAVANCE BIOPHARMA R&D IP, LLC, priority 2015, dated 2020)", "key": {"[1]": {"assay": "Pharmacokinetics in plasma and lung in mouse", "type": "in vivo", "details": "oral aspiration, lung AUC (μg hr/g) to plasma AUC (μg hr/mL)", "protocol": "Plasma and lung levels of test compounds and ratios thereof were determined in the following manner. BALB/c mice from Charles River Laboratories were used in the assay. Test compounds were individually formulated in 20% propylene glycol in pH 4 citrate buffer at a concentration of 0.2 mg/mL and 50 uL of the dosing solution was introduced into the trachea of a mouse by oral aspiration. At various time points (typically 0.167, 2, 6, 24 hr) post dosing, blood samples were removed via cardiac puncture and intact lungs were excised from the mice. Blood samples were centrifuged (Eppendorf centrifuge, 5804R) for 4 minutes at approximately 12,000 rpm at 4° C. to collect plasma. Lungs were padded dry, weighed, and homogenized at a dilution of 1:3 in sterile water. Plasma and lung levels of test compound were determined by LC-MS analysis against analytical standards constructed into a standard curve in the test matrix. A lung to plasma ratio was determined as the ratio of the lung AUC in μg hr/g to the plasma AUC in μg hr/mL, where AUC is conventionally defined as the area under the curve of test compound concentration vs. time."}, "JAK1": {"target": "JAK1 (Homo sapiens (Human), UniProt P23458)", "sequence (P23458 whole entry)": "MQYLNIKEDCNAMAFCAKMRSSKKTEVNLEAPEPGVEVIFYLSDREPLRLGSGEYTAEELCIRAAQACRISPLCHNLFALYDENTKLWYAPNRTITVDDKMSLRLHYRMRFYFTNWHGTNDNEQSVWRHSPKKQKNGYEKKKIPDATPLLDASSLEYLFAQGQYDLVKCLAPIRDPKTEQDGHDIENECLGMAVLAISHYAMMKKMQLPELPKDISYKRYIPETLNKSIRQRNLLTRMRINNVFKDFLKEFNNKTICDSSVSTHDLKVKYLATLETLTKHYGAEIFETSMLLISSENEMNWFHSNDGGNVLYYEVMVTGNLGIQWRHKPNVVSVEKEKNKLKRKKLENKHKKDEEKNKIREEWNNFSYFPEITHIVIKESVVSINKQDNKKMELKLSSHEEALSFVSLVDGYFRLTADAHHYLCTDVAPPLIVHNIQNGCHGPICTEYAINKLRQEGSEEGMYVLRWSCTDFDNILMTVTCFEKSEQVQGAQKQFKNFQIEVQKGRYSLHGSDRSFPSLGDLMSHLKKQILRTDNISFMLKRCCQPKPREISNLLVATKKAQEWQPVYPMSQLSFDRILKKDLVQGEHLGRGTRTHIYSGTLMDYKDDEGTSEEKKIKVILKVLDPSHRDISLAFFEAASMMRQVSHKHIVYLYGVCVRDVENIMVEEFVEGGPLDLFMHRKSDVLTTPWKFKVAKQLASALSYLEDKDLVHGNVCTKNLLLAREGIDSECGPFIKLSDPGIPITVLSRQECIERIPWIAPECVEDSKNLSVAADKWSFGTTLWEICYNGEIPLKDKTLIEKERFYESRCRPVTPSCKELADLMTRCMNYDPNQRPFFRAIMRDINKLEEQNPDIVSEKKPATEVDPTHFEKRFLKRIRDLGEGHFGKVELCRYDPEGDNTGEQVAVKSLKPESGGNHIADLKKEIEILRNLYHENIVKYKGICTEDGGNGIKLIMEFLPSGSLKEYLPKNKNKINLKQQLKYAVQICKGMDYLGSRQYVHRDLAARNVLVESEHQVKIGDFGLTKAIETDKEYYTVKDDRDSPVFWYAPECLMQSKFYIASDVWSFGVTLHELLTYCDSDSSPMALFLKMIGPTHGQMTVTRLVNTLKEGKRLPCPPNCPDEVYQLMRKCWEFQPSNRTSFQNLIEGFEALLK", "assay": "LanthaScreen JAK1 biochemical assay", "details": "versus Examples 1, 7, 13, 6"}, "IL-13 induced pSTAT6": {"system": "IL-13 induced pSTAT6", "assay": "Murine model of IL-13 induced pSTAT6 induction in lung tissue", "type": "in vivo", "details": "mouse lung; for lung concentration smaller than that of the corresponding compound of the invention by a factor: pharmacodynamic assay, versus Examples 1, 7, 13, 6", "protocol": "Il-13 is an important cytokine underlying the pathophysiology of asthma (Kudlacz et al. Eur. J. Pharmacol, 2008, 582, 154-161). IL-13 binds to cell surface receptors activating members of the Janus family of kinases (JAK) which then phosphorylate STAT6 and subsequently activates further transcription pathways. In the described model, a dose of IL-13 was delivered locally into the lungs of mice to induce the phosphorylation of STAT6 (pSTAT6) which is then measured as the endpoint.\nAdult balb/c mice from Harlan were used in the assay. On the day of study, animals were lightly anesthetized with isoflurane and administered either vehicle or test compound (0.5 mg/mL, 50 μL total volume over several breaths) via oral aspiration. Animals were placed in lateral recumbency post dose and monitored for full recovery from anesthesia before being returned to their home cage. Four hours later, animals were once again briefly anesthetized and challenged with either vehicle or IL-13 (0.03 μg total dose delivered, 50 μL total volume) via oral aspiration before being monitored for recovery from anesthesia and returned to their home cage. One hour after vehicle or IL-13 administration, lungs were collected for both pSTAT6 detection using an anti-pSTAT6 ELISA (rabbit mAb capture/coating antibody; mouse mAb detection/report antibody: anti-pSTAT6-pY641; secondary antibody: anti-mouse IgG-HRP) and analyzed for total drug concentration as described above in Assay 4.\nSelected compounds of the invention were tested in the assay. Activity in the model is evidenced by a decrease in the level of pSTAT6 present in the lungs of treated animals at 5 hours compared to the vehicle treated, IL-13 challenged control animals. The difference between the control animals which were vehicle-treated, IL-13 challenged and the control animals which were vehicle-treated, vehicle challenged dictated the 0% and 100% inhibitory effect, respectively, in any given experiment."}, "[2]": {"assay": "Dynamic moisture sorption assessment", "type": "physicochemical", "protocol": "Dynamic moisture sorption (DMS) measurement was performed using a VTI atmospheric microbalance, SGA-100 system (VTI Corp., Hialeah, Fla. 33016). A weighed sample was used and the humidity was lowest possible value (close to 0% RH) at the start of the analysis. The DMS analysis consisted of an initial drying step (˜0% RH) for 120 minutes, followed by two cycles of sorption and desorption with a scan rate of 5% RH/step over the humidity range of 5% RH to 90% RH. The DMS run was performed isothermally at 25° C."}, "[3]": {"system": "IL-13 induced STAT6 phosphorylation in BEAS-2B human lung epithelial cells", "assay": "AlphaScreen JAK1 cellular potency assay in BEAS-2B cells", "type": "cell-based"}}, "data": [{"smiles": "CCc1cc(O)c(F)cc1-c1ccc2c(-c3nc4c([nH]3)CCN(CCNC3CC(OC)C3)C4)n[nH]c2c1", "note": "(centres unmarked) [Example 8, 5-Ethyl-2-fluoro-4-(3-(5-(2-((3-methoxycyclobutyl)amino)ethyl)-4,5,6,7-tetrahydro-1H-imidazo[4,5-c]pyridin-2-yl)-1H-indazol-6-yl)phenol]", "values": [{"measurement": "Lung to Plasma ratio Assay 4", "setting": "[1]", "result": "A (A denotes a ratio >100)"}]}, {"smiles": "CCc1cc(O)c(F)cc1-c1ccc2c(-c3nc4c([nH]3)CCN(C[C@H]3COCCN3)C4)n[nH]c2c1", "note": "[Example 13, (S)-5-Ethyl-2-fluoro-4-(3-(5-(morpholin-3-ylmethyl)-4,5,6,7-tetrahydro-1H-imidazo[4,5-c]pyridin-2-yl)-1H-indazol-6-yl)phenol]", "values": [{"measurement": "Lung to Plasma ratio Assay 4", "setting": "[1]", "result": "A (A denotes a ratio >100)"}]}, {"smiles": "CCc1cc(O)c(F)cc1-c1ccc2c(-c3nc4c([nH]3)CCN(C3CC(C)C3)C4)n[nH]c2c1", "note": "(centres unmarked) [Example C-1, 5-Ethyl-2-fluoro-4-(3-(5-(3-methylcyclobutyl)-4,5,6,7-tetrahydro-1H-imidazo[4,5-c]pyridin-2-yl)-1H-indazol-6-yl)phenol]", "values": [{"measurement": "fold less potent than the corresponding compound of the invention in the enzyme assay", "setting": "JAK1", "result": 2, "unit": "fold"}, {"measurement": "lung concentration smaller than that of the corresponding compound of the invention by a factor", "setting": "IL-13 induced pSTAT6", "result": 36}]}, {"smiles": "CCc1cc(O)c(F)cc1-c1ccc2c(-c3nc4c([nH]3)CCN(C3CCN(C)CC3)C4)n[nH]c2c1", "note": "[crystalline hydrate, 5-ethyl-2-fluoro-4-(3-(5-(1-methylpiperidin-4-yl)-4,5,6,7-tetrahydro-1H-imidazo[4,5-c]pyridin-2-yl)-1H-indazol-6-yl)phenol]", "values": [{"measurement": "hygroscopicity", "setting": "[2]", "result": "non-hygroscopic"}, {"measurement": "weight gain (dynamic moisture sorption)", "setting": "[2]; 5% to 90% relative humidity, 25° C.", "result": "less than 0.12%"}]}, {"smiles": "CCc1cc(O)c(F)cc1-c1ccc2c(-c3nc4c([nH]3)CCN(C3CN(C5CCS(=O)(=O)C5)C3)C4)n[nH]c2c1", "note": "(centres unmarked) [Example 1-15]", "values": [{"measurement": "pSTAT6 inhibition in the pharmacodynamic assay", "setting": "IL-13 induced pSTAT6", "result": "noted as exceptions"}]}, {"smiles": "CCc1cc(O)c(F)cc1-c1ccc2c(-c3nc4c([nH]3)CCN(CCN3CCC[C@@H]3C)C4)n[nH]c2c1", "note": "[Example 15, (S)-5-ethyl-2-fluoro-4-(3-(5-(2-(2-methylpyrrolidin-1-yl)ethyl)-4,5,6,7-tetrahydro-1H-imidazo[4,5-c]pyridin-2-yl)-1H-indazol-6-yl)phenol]", "values": [{"measurement": "Lung to Plasma ratio Assay 4", "setting": "[1]", "result": "A (A denotes a ratio >100)"}]}, {"smiles": "CCc1cc(O)c(F)cc1-c1ccc2c(-c3nc4c([nH]3)CCN(CC3CNC3)C4)n[nH]c2c1", "note": "[Example 14-7]", "values": [{"measurement": "Lung to Plasma ratio Assay 4", "setting": "[1]", "result": "A (A denotes a ratio >100)"}]}, {"smiles": "CCc1cc(O)c(F)cc1-c1ccc2c(-c3nc4c([nH]3)CCN(CCC(C)C)C4)n[nH]c2c1", "note": "[Example C-2]", "values": [{"measurement": "fold less potent than the corresponding compound of the invention in the enzyme assay", "setting": "JAK1", "result": 3, "unit": "fold"}, {"measurement": "lung concentration smaller than that of the corresponding compound of the invention by a factor", "setting": "IL-13 induced pSTAT6", "result": 52}]}, {"smiles": "CCc1cc(O)c(F)cc1-c1ccc2c(-c3nc4c([nH]3)CCN(C[C@@H]3CCCN3C)C4)n[nH]c2c1", "note": "[Example 11, (S)-5-ethyl-2-fluoro-4-(3-(5-((1-methylpyrrolidin-2-yl)methyl)-4,5,6,7-tetrahydro-1H-imidazo[4,5-c]pyridin-2-yl)-1H-indazol-6-yl)phenol]", "values": [{"measurement": "Lung to Plasma ratio Assay 4", "setting": "[1]", "result": "A (A denotes a ratio >100)"}]}, {"smiles": "CCc1cc(O)c(F)cc1-c1ccc2c(-c3nc4c([nH]3)CCN(CC3CCCOC3)C4)n[nH]c2c1", "note": "(centres unmarked) [Example C-3]", "values": [{"measurement": "fold less potent than the corresponding compound of the invention in the enzyme assay", "setting": "JAK1", "result": 6, "unit": "fold"}, {"measurement": "lung concentration smaller than that of the corresponding compound of the invention by a factor", "setting": "IL-13 induced pSTAT6", "result": 13}]}, {"smiles": "CCc1cc(O)c(F)cc1-c1ccc2c(-c3nc4c([nH]3)CCN(CCNC3(C#N)CC3)C4)n[nH]c2c1", "note": "[Example 3-1]", "values": [{"measurement": "pSTAT6 inhibition in the pharmacodynamic assay", "setting": "IL-13 induced pSTAT6", "result": "noted as exceptions"}]}, {"smiles": "CCc1cc(O)c(F)cc1-c1ccc2c(-c3nc4c([nH]3)CCN(CCN(C)CC(C)C)C4)n[nH]c2c1", "note": "[Example 3-33]", "values": [{"measurement": "Lung to Plasma ratio Assay 4", "setting": "[1]", "result": "A (A denotes a ratio >100)"}]}, {"smiles": "CCc1cc(O)c(F)cc1-c1ccc2c(-c3nc4c([nH]3)CCN(C3CCC(C)CC3)C4)n[nH]c2c1", "note": "(centres unmarked) [Example C-4]", "values": [{"measurement": "fold less potent than the corresponding compound of the invention in the enzyme assay", "setting": "JAK1", "result": 2.5, "unit": "fold"}, {"measurement": "lung concentration smaller than that of the corresponding compound of the invention by a factor", "setting": "IL-13 induced pSTAT6", "result": 23}]}, {"smiles": "CCc1cc(O)c(F)cc1-c1ccc2c(-c3nc4c([nH]3)CCN(C[C@@H]3COCCN3)C4)n[nH]c2c1", "note": "[Example 14, (R)-5-Ethyl-2-fluoro-4-(3-(5-(morpholin-3-ylmethyl)-4,5,6,7-tetrahydro-1H-imidazo[4,5-c]pyridin-2-yl)-1H-indazol-6-yl)phenol]", "values": [{"measurement": "Lung to Plasma ratio Assay 4", "setting": "[1]", "result": "A (A denotes a ratio >100)"}]}, {"smiles": "CCc1cc(O)c(F)cc1-c1ccc2c(-c3nc4c([nH]3)CCN(CCNC3CC(OC)C3)C4)n[nH]c2c1", "note": "(centres unmarked) [Example 3-30]", "values": [{"measurement": "BEAS-2B pIC50", "setting": "[3]", "result": "A (A represents a pIC50 value ≥8 (IC50≤10 nM))"}]}]}
